Measurements: US20170334899A1, “AMINO-SUBSTITUTED ISOTHIAZOLES” (Bayer Pharma Aktiengesellschaft, priority 2014, published 2017)

These compounds were tested against T1, human kinase Mps-1 (Homo sapiens, UniProt P33981) (assay: Mps-1 kinase assay (TR-FRET)). Conditions: Mps-1 TR-FRET kinase assay; avg; read-out: Mps1 avg (IC50 [mol/l]).
T1 construct: N-terminally GST-tagged human full length recombinant Mps-1 kinase; GST (N); purchased Invitrogen, Karslruhe, Germany PV4071
T1 sequence (P33981 1-857): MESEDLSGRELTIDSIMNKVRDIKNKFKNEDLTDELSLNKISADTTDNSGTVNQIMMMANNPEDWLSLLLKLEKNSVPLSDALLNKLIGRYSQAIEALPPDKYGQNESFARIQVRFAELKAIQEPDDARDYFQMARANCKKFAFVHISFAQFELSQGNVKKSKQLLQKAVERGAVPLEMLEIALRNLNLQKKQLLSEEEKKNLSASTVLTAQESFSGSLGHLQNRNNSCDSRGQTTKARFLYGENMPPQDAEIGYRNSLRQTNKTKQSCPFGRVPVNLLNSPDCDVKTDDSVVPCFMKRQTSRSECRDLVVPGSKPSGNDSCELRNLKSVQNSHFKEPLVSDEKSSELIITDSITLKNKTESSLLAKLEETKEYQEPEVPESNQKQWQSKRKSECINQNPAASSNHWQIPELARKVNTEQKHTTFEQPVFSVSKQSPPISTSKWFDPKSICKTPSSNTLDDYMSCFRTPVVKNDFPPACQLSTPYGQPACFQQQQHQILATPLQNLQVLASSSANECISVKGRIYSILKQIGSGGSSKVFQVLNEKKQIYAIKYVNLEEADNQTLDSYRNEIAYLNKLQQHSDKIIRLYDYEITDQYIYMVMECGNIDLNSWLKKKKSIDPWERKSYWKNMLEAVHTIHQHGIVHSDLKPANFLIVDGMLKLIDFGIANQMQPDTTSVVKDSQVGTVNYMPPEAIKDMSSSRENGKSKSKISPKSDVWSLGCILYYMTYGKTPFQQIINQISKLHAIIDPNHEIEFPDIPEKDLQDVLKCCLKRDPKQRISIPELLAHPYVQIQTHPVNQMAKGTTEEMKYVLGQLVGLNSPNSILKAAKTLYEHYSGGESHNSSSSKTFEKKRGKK
Format: biochemical
Procedure: The human kinase Mps-1 phosphorylates a biotinylated substrate peptide. Detection of the phosphorylated product is achieved by time-resolved fluorescence resonance energy transfer (TR-FRET) from Europium-labelled anti-phospho-Serine/Threonine antibody as donor to streptavidin labelled with cross-linked allophycocyanin (SA-XLent) as acceptor. Compounds are tested for their inhibition of the kinase activity.
N-terminally GST-tagged human full length recombinant Mps-1 kinase (purchased from Invitrogen, Karslruhe, Germany, cat. no PV4071) was used. As substrate for the kinase reaction a biotinylated peptide of the amino-acid sequence biotin-Ahx-PWDPDDADITEILG (C-terminus in amide form, purchased from Biosyntan GmbH, Berlin) was used.
For the assay 50 nl of a 100-fold concentrated solution of the test compound in DMSO was pipetted into a black low volume 384we11 microtiter plate (Greiner Bio-One, Frickenhausen, Germany), 2 μl of a solution of Mps-1 in assay buffer [0.1 mM sodium-ortho-vanadate, 10 mM MgCl2,2 mM DTT, 25 mM Hepes pH 7.7, 0.05% BSA (w/v), 0.001% Pluronic F-127] were added and the mixture was incubated for 15 min at 22° C. to allow pre-binding of the test compounds to Mps-1 before the start of the kinase reaction. Then the kinase reaction was started by the addition of 3 μl of a solution of 16.7 μM adenosine-tri-phosphate (ATP, 16.7 μM=>final conc. in the 5 μl assay volume is 10 μM) and peptide substrate (1.67 μM=>final conc. in the 5 μl assay volume is 1 μM) in assay buffer and the resulting mixture was incubated for a reaction time of 60 min at 22° C. The concentration of Mps-1 in the assay was adjusted to the activity of the enzyme lot and was chosen appropriate to have the assay in the linear range, typical enzyme concentrations were in the range of about 0.5 nM (final conc. in the 5 μl assay volume). The reaction was stopped by the addition of 5 μl of a solution of TR-FRET detection reagents (100 mM Hepes pH 7.4, 0.1% BSA, 40 mM EDTA, 140 nM Streptavidin-XLent [#61GSTXLB, Fa. Cis Biointernational, Marcoule, France], 1.5 nM anti-phospho(Ser/Thr)-Europium-antibody [#AD0180, PerkinElmer LAS, Rodgau-Jugesheinn, Germany]. Instead of the 1.5 nM anti-phospho(Ser/Thr)-Europium-antibody a mixture of 2 nM unlabeled anti-phospho ser/thr-pro antibody MPM-2 [Millipore cat. #05-368] and 1 nM LANCE EU-W1024 labeled anti-mouse IgG antibody [Perkin-Elmer, product no. AD0077] can be used).
The resulting mixture was incubated 1 h at 22° C. to allow the binding of the phosphorylated peptide to the anti-phospho(Ser/Thr)-Europium-antibody. Subsequently the amount of phosphorylated substrate was evaluated by measurement of the resonance energy transfer from the Europium-labelled anti-phospho(Ser/Thr) antibody to the Streptavidin-XLent. Therefore, the fluorescence emissions at 620 nm and 665 nm after excitation at 350 nm was measured in a Viewlux TR-FRET reader (PerkinElmer LAS, Rodgau-Jugesheinn, Germany). The “blank-corrected normalized ratio” (a Viewlux specific readout, similar to the traditional ratio of the emissions at 665 nm and at 622 nm, in which blank and Eu-donor crosstalk are subtracted from the 665 nm signal before the ratio is calculated) was taken as the measure for the amount of phosphorylated substrate. The data were normalised (enzyme reaction without inhibitor=0% inhibition, all other assay components but no enzyme=100% inhibition).

Compound | IC50 [µM]
Cc1nsc(Nc2cnc(C(F)(F)F)cn2)c1C(=O)Nc1ccc(OCC2CCN(C(=O)OC(C)(C)C)C2)nc1 (stereo not shown) [Example 109, tert-Butyl 3-{[(5-{[(3-methyl-5-{[5-(trifluoromethyl)pyrazin-2-yl]amino}-1,2-thiazol-4-yl)carbonyl]amino}pyridin-2-yl)oxy]methyl}pyrrolidine-1-carboxylate] | ≥ 20
Cc1nsc(Nc2cncc(C(F)(F)F)n2)c1C(=O)Nc1ccc(OCC2CCN(C(=O)OC(C)(C)C)C2)nc1 (stereo not shown) [Example 110, tert-Butyl 3-{[(5-{[(3-methyl-5-{[6-(trifluoromethyl)pyrazin-2-yl]amino}-1,2-thiazol-4-yl)carbonyl]amino}pyridin-2-yl)oxy]methyl}pyrrolidine-1-carboxylate] | ≥ 20
CNS(=O)(=O)c1ccc(NC(=O)c2c(C)nsc2Nc2cnc3ccccc3n2)cc1 [Example 111, 3-Methyl-N-[4-(methylsulfannoyl)phenyl]-5-(quinoxalin-2-ylamino)-1,2-thiazole-4-carboxamide] | ≥ 20
CC(=O)N(C)CCOc1ccc(NC(=O)c2c(C)nsc2Nc2nc3c(C(F)(F)F)cccc3s2)cn1 [Example 112, N-(6-{2-[Acetyl(methyl)amino]-ethoxy}pyridin-3-yl)-3-methyl-5-{[4-(trifluoromethyl)-1,3-benzothiazol-2-yl]amino}-1,2-thiazole-4-carboxamide] | ≥ 20
Cc1nsc(Nc2cnc3ccccc3n2)c1C(=O)Nc1cccc(C(=O)N2CCCC2)c1 [Example 113, 3-Methyl-N-[3-(pyrrolidin-1-ylcarbonyl)phenyl]-5-(quinoxalin-2-ylamino)-1,2-thiazole-4-carboxamide] | 12
Cc1nsc(Nc2cc(C#N)ccn2)c1C(=O)Nc1cccc(C(=O)N2CCCC2)c1 [Example 114, 5-[(4-Cyanopyridin-2-yl)amino]-3-methyl-N-[3-(pyrrolidin-1-ylcarbonyl)phenyl]-1,2-thiazole-4-carboxamide] | ≥ 20
Cc1nsc(Nc2cnc3ccccc3n2)c1C(=O)Nc1ccc(S(C)(=O)=O)cc1 [Example 115, 3-Methyl-N-[4-(methylsulfonyl)phenyl]-5-(quinoxalin-2-ylamino)-1,2-thiazole-4-carboxamide] | ≥ 20
CCNS(=O)(=O)c1ccc(NC(=O)c2c(C)nsc2Nc2cnc3ccccc3n2)cc1 [Example 116, N-[4-(Ethylsulfamoyl)phenyl]-3-methyl-5-(quinoxalin-2-ylamino)-1,2-thiazole-4-carboxamide] | ≥ 20
Cc1nsc(Nc2cnc3ccccc3n2)c1C(=O)Nc1ccc(Oc2cccc(C(F)(F)F)c2)nc1 [Example 117, 3-Methyl-5-(quinoxalin-2-ylamino)-N-{6-[3-(trifluoromethyl)phenoxy]pyridin-3-yl}-1,2-thiazole-4-carboxamide] | ≥ 20
Cc1nsc(Nc2ccc(C#N)cn2)c1C(=O)Nc1ccc(Oc2cccc(C(F)(F)F)c2)nc1 [Example 118, 5-[(5-Cyanopyridin-2-yl)amino]-3-methyl-N-{6-[3-(trifluoromethyl)phenoxy]pyridin-3-yl}-1,2-thiazole-4-carboxamide] | ≥ 20
Cc1nsc(Nc2cc(C#N)ccn2)c1C(=O)Nc1ccc(Oc2cccnc2)nc1 [Example 119, 5-[(4-Cyanopyridin-2-yl)amino]-3-methyl-N-[6-(pyridin-3-yloxy)pyridin-3-yl]-1,2-thiazole-4-carboxamide] | ≥ 20
Cc1nsc(Nc2cnc(C(F)(F)F)cn2)c1C(=O)Nc1ccc(OCC2CCN(CCF)C2)nc1 (stereo not shown) [Example 121, N-(6-{[1-(2-fluoroethyl)pyrrolidin-3-yl]methoxy}pyridin-3-yl)-3-methyl-5-{[5-(trifluoromethyl)pyrazin-2-yl]amino}-1,2-thiazole-4-carboxamide] | ≥ 20
Cc1nsc(Nc2cnc(C(F)(F)F)cn2)c1C(=O)Nc1ccc(OCC2CCN(CC(F)F)C2)nc1 (stereo not shown) [Example 122, N-(6-{[1-(2,2-difluoroethyl)pyrrolidin-3-yl]methoxy}pyridin-3-yl)-3-methyl-5-{[5-(trifluoromethyl)pyrazin-2-yl]amino}-1,2-thiazole-4-carboxamide] | ≥ 20
